Experiments:
Experiment in all cases: relative viability (nuclei count vs DMSO), 5 days (fraction); higher = more cells survive
FH535 + Palbociclib = compound: CC1=C(C=CC(=C1)[N+](=O)[O-])NS(=O)(=O)C2=C(C=CC(=C2)Cl)Cl [FH535] + CC(=O)c1c(C)c2cnc(Nc3ccc(N4CCNCC4)cn3)nc2n(C2CCCC2)c1=O [Palbociclib] (partner 0.5 µM)
Method in brief: (§1)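 Lung cancer cell lines in 1536-well plates were dosed by pin tool the day after seeding, either with one drug alone or with a fixed anchor-drug dose plus five library-drug doses (not always all listed) in √10 steps. After 5 days, cells were fixed and their nuclei stained in one step (final 0.05% Triton X-100, 1% formaldehyde, 1 ug/ml Hoechst), then counted on 4× images. Relative viability is the nuclei count in treated wells divided by that in vehicle wells. Values are medians of duplicate plates.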

FH535 + Linsitinib = compound: CC1=C(C=CC(=C1)[N+](=O)[O-])NS(=O)(=O)C2=C(C=CC(=C2)Cl)Cl [FH535] + C[C@]1(O)C[C@@H](c2nc(-c3ccc4ccc(-c5ccccc5)nc4c3)c3c(N)nccn32)C1 [Linsitinib] (partner 1 µM)
Method in brief: as §1

FH535 + Luminespib = compound: CC1=C(C=CC(=C1)[N+](=O)[O-])NS(=O)(=O)C2=C(C=CC(=C2)Cl)Cl [FH535] + CCNC(=O)c1noc(-c2cc(C(C)C)c(O)cc2O)c1-c1ccc(CN2CCOCC2)cc1 [Luminespib] (partner 0.01 µM)
Method in brief: as §1

FH535 + AZD7762 = compound: CC1=C(C=CC(=C1)[N+](=O)[O-])NS(=O)(=O)C2=C(C=CC(=C2)Cl)Cl [FH535] + NC(=O)Nc1cc(-c2cccc(F)c2)sc1C(=O)N[C@H]1CCCNC1 [AZD7762] (partner 0.2 µM)
Method in brief: as §1

FH535 + Olaparib = compound: CC1=C(C=CC(=C1)[N+](=O)[O-])NS(=O)(=O)C2=C(C=CC(=C2)Cl)Cl [FH535] + O=C(c1cc(Cc2n[nH]c(=O)c3ccccc23)ccc1F)N1CCN(C(=O)C2CC2)CC1 [Olaparib] (partner 8 µM)
Method in brief: as §1

Cell Line	relative viability (FH535 + Palbociclib; first compound 0.04 µM)	relative viability (FH535 + Palbociclib; first compound 0.1265 µM)	relative viability (FH535 + Palbociclib; first compound 0.4 µM)	relative viability (FH535 + Palbociclib; first compound 1.265 µM)	relative viability (FH535 + Linsitinib; first compound 0.04 µM)	relative viability (FH535 + Linsitinib; first compound 0.1265 µM)	relative viability (FH535 + Linsitinib; first compound 0.4 µM)	relative viability (FH535 + Linsitinib; first compound 1.265 µM)	relative viability (FH535 + Luminespib; first compound 0.04 µM)	relative viability (FH535 + Luminespib; first compound 0.1265 µM)	relative viability (FH535 + Luminespib; first compound 0.4 µM)	relative viability (FH535 + Luminespib; first compound 1.265 µM)	relative viability (FH535 + AZD7762; first compound 0.04 µM)	relative viability (FH535 + AZD7762; first compound 0.1265 µM)	relative viability (FH535 + AZD7762; first compound 0.4 µM)	relative viability (FH535 + AZD7762; first compound 1.265 µM)	relative viability (FH535 + Olaparib; first compound 0.04 µM)	relative viability (FH535 + Olaparib; first compound 0.1265 µM)	relative viability (FH535 + Olaparib; first compound 0.4 µM)	relative viability (FH535 + Olaparib; first compound 1.265 µM)
NCI-H647	0.401	0.445	0.27	0.4	1.09	1.11	1.17	0.912	0.156	0.167	0.125	0.23	0.557	0.519	0.322	0.418	0.586	0.528	0.467	0.509
NCI-H650	0.282	0.35	0.332	0.266	0.687	1.09	0.832	0.603	0.639	0.732	0.796	0.619	0.877	1.03	1.18	0.67	0.384	0.341	0.369	0.249
NCI-H727	0.663	0.634	0.693	0.63	0.367	0.192	0.293	0.216	0.323	0.5	0.327	0.297	0.409	0.59	0.595	0.59	0.746	0.675	0.527	0.549
NCI-H838	0.217	0.222	0.208	0.198	0.987	1.03	0.938	0.908	0.278	0.419	0.261	0.247	0.893	1	0.902	0.891	0.727	0.768	0.66	0.475
NCI-H1355	0.394	0.436	0.4	0.324	0.745	0.822	0.78	0.633	0.667	0.761	0.72	0.463	0.688	0.843	0.727	0.76	0.649	0.796	0.709	0.476
NCI-H1395	0.599	0.735	0.63	0.561	0.877	1.41	1.07	0.862	0.738	0.576	0.784	0.581	0.381	0.426	0.368	0.393	0.491	0.46	0.437	0.414
NCI-H1437	0.316	0.314	0.237	0.229	1.02	0.962	0.879	0.421	1.1	1	0.858	0.449	1.11	1.13	1.01	0.502	0.608	0.575	0.491	0.336
NCI-H1651	0.51	0.497	0.532	0.437	0.999	0.949	0.942	0.731	1.01	0.701	0.748	0.591	0.368	0.511	0.502	0.466	0.174	0.194	0.188	0.184
NCI-H1666	0.674	0.639	0.614	0.631	0.88	0.78	0.753	0.55	0.988	0.933	0.966	0.983	0.727	0.899	0.772	0.747	0.742	0.731	0.756	0.725
NCI-H1734	0.375	0.312	0.351	0.332	0.838	0.939	0.876	0.866		0.207	0.215	0.176	0.562	0.603	0.563	0.554	0.539	0.715	0.635	0.613
NCI-H1755	0.428	0.413	0.463	0.448	0.968	0.996	0.912	0.919	0.394	0.445	0.38	0.418	0.418	0.439	0.475	0.444	0.867	0.857	0.8	0.869
NCI-H1792	0.657	0.629	0.664	0.486	0.54	0.601	0.527	0.396	0.441	0.433	0.436	0.263	0.646	0.79	0.539	0.577	0.463	0.329	0.39	0.345
NCI-H1793	0.315	0.306	0.348	0.241	0.785	0.917	0.867	0.778	0.168	0.229	0.19	0.143	0.43	0.631	0.418	0.483	0.801	0.94	0.826	0.454
NCI-H1915	0.537	0.501	0.469	0.45	1.08	1.12	1.08	0.896	0.81	0.797	0.775	0.644	0.604	0.77	0.713	0.669	0.208	0.286	0.242	0.236
NCI-H1944	0.328	0.326	0.35	0.272		1.31	1.22	1.05	0.672	0.82	0.727	0.669	0.316	0.527	0.588	0.48	0.382	0.453	0.431	0.308

Reference: the supplement of paper PMC10307832
